Assay results: PMC6680770, “Effect of Ticagrelor, a Cytochrome P450 3A4 Inhibitor, on the Pharmacokinetics of Tadalafil in Rats” (Pharmaceutics, 2019)
Where “and” joins values, the source holds several entries; their conditions need not be identical. Identical values can stand only once. Like-named read-outs stand apart in the source and are kept apart here.

What was measured:
[1] = One-compartment pharmacokinetic modeling of the plasma concentration-time profile of tadalafil; type: in vivo, Sprague-Dawley rats; settings: one-compartment model; for k el: Sprague-Dawley, rat, plasma, read-out: Ke (converted); for k el / Ka / V/F: tadalafil 2 mg/kg oral, mean ± SD, n = 10
Method: (§1) The experiment was performed in a parallel design. A total of 20 rats were randomly divided into two groups. The control group, Group N (n = 10, non-pretreated rats), was orally administered for 7 days only with the vehicle (normal saline/polyethylene glycol 400/dimethyl sulfoxide = 40:20:20). Group T (n = 10, ticagrelor-pretreated rats), an experimental group, received 10 mg/kg of ticagrelor in the vehicle once a day for 7 days orally. Thereafter, on the seventh day, tadalafil (2 mg/kg) was orally administered 30 min after the final administration of the vehicle or ticagrelor. Doses of all samples were calculated according to the weight of the rats and administered using gavage. The dose of ticagrelor and tadalafil given to rats were determined by converting the human doses (90 mg for ticagrelor and 20 mg for tadalafil) to animal doses with body surface area, according to the United States Food and Drug Administration guidelines. Blood (0.3 mL) was collected from the retro-orbital plexus or the jugular vein at predetermined time-points (0, 0.33, 0.67, 1, 1.5, 2, 4, 6, 8, 12, and 24 h) after the oral administration. Samples were centrifuged at 15,000× g for 5 min at 4 °C. The plasma was collected and stored at −20 °C until the concentration of tadalafil was analyzed by LC-MS/MS.
Pharmacokinetic modeling of the plasma concentration-time profile of tadalafil was performed using a one-compartment model to investigate the absorption and elimination rates. The parameters of the one-compartment model of tadalafil were estimated based on data from Group N and Group T.
In this model, the shift of the tadalafil amount in the gut compartment and the central compartment is described by the following equations [33]: dG/dt= −Ka·G dC/dt=Ka·G−Ke·C where G and C represent the amount of tadalafil in the gut compartment and the central compartment, respectively. Ka indicates the absorption rate constant from the gut compartment to the central compartment. Ke indicates the elimination rate constant from the central compartment […]. Each equation was applied to both Group N and Group T data through the classic model of WinNolin software 8.1 (Pharsight Corp., Sunnyvale, CA, USA).
Predicted plasma concentrations of tadalafil (Conpred) using the one-compartment model were estimated by the following equation [34]: Conpred= C/(V/F) where V/F indicates the central volume of distribution of tadalafil.

[2] = set-up: method as in PMID 14622499; settings: cited from earlier work
[3] = Pharmacokinetic study of tadalafil after oral administration to non-pretreated and ticagrelor-pretreated rats, non-compartment analysis; type: in vivo, Sprague-Dawley rats; settings: tadalafil 2 mg/kg oral; for Cmax / AUC(0-inf) / CL/F / Tmax / half-life / AUC(0-t): Sprague-Dawley, rat, plasma, po, 2 mg/kg, mean ± SD, n = 10; for AUC(0-t): read-out: AUC0–24
Method: The concentrations of tadalafil were analyzed by a liquid chromatography tandem-mass spectrometry (LC-MS/MS) system equipped with Agilent 1290 series and Agilent 6495 Triple Quad LC/MS (Agilent Technologies, Santa Clara, CA, USA). A YMC-Triart C18 column (50 × 2.0 mm, 1.9 µm; YMC Inc., Wilmington, NC, USA) was used. The mobile phase was a mixture of 0.2% formic acid in acetonitrile and 0.2% formic acid in distilled water (50:50, v/v), and the flow rate was 0.4 mL/min. The temperature of the column and autosampler were set as 30 °C and 4 °C, respectively. The positive ion mode using Agilent jet stream electrospray ionization (AJS-ESI) was applied to record the scan mass spectra. The ion transitions of tadalafil and IS were set as 390.4→268.1 m/z and 876.4→308.1 m/z, respectively, and detected with a multiple reaction monitoring (MRM) mode. The collision energies for tadalafil and IS were 10 V and 30 V, respectively. The cell accelerator voltage was 5 V and the dwell time was set as 200 ms. The source parameters were set as follows: Gas temperature 200 °C, gas flow 14 L/min, nebulizer 20 psi, sheath gas heater 250 °C, sheath gas flow 11 L/min, capillary 3000 V, and nozzle voltage 1500 V.
as §1
Protein precipitation was applied to extract tadalafil from plasma. Briefly, 200 µL of acetonitrile (0.2 v/v% formic acid) containing 500 ng/mL of IS was added to 20 µL of the plasma sample. After shaking for 5 min, the mixture was centrifuged at 15,000× g for 5 min. The supernatant (150 µL) was transferred and 5 µL of the sample was injected into the LC-MS/MS.
Pharmacokinetic data were analyzed based on the non-compartment analysis of WinNonlin software 8.1 (Pharsight Corp., Sunnyvale, CA, USA). The maximum plasma concentration of tadalafil (maximum concentration (Cmax)) and the time to reach the maximal plasma concentration (Tmax) of tadalafil were determined from the plasma concentration-time profiles. The area under the plasma concentration vs time curve from 0 to 24 h (AUC0–24) was calculated by the linear trapezoidal rule and the area under the plasma concentration vs time curve from 0 h to infinite time (AUC0–∞) was estimated by extrapolating time to infinity. The elimination half-life (T1/2) and apparent total clearance (CL/F) were determined from the ln 2/elimination rate constant and dose/AUC0–∞, respectively.

[4] = longer than sildenafil or vardenafil; cited from earlier work
CYP3A = test: Classification of ticagrelor as CYP3A inhibitor from changes in tadalafil AUC and clearance; type: in vivo; settings: weak inhibitor = increases AUC of CYP substrate 1.25-fold to 2-fold or reduces clearance by 20–50%; inferred from tadalafil AUC (1.61-fold) and clearance (37%) in rats
Method: as §1, with “Blood (0.3 mL) was collected from the retro-orbital plexus or the jugular vein at predetermined time-points (0, 0.33, 0.67, 1, 1.5, 2, 4, 6, 8, 12, and 24 h) after the oral administration. Samples were centrifuged at 15,000× g for 5 min at 4 °C.” left out
Pharmacokinetic data were analyzed based on the non-compartment analysis of WinNonlin software 8.1 (Pharsight Corp., Sunnyvale, CA, USA). The maximum plasma concentration of tadalafil (maximum concentration (Cmax)) and the time to reach the maximal plasma concentration (Tmax) of tadalafil were determined from the plasma concentration-time profiles. […]

[5] = Group T, ticagrelor-pretreated rats
[6] = ticagrelor-pretreated vs non-pretreated rats
[7] = Group T, ticagrelor-pretreated rats (10 mg/kg, 7 days)
[8] = rats, ticagrelor pretreatment, p < 0.05
[9] = rats, ticagrelor-pretreated vs non-pretreated

SMILES: CN1CC(=O)N2[C@H](c3ccc4c(c3)OCO4)c3[nH]c4ccccc4c3C[C@@H]2C1=O [tadalafil, Tadalafil]
- k el ([1]; Group N, non-pretreated rats): 4.72e-05 s⁻¹
- k el [1, 5]: 3.61e-05 s⁻¹
- Ka ([1]; Group N, non-pretreated rats): 1.71 ± 0.91 h⁻¹
- V/F ([1]; Group N, non-pretreated rats): 4.39 ± 0.78 L/kg and 4.39 ± 0.76 L/kg
- Ka [1, 5]: 1.14 ± 0.73 h⁻¹
- V/F [1, 5]: 3.36 ± 0.95 L/kg
- Ka Ratio (Group T/Group N) [1, 6]: 0.67
- Ke Ratio (Group T/Group N) [1, 6]: 0.77
- V/F Ratio (Group T/Group N) [1, 6]: 0.77
- half-life ([2]; elderly men): about 21.6 h
- half-life ([2]; normal healthy men, after administration): approximately 17.5 h
- Cmax ([3]; Group N, non-pretreated rats (vehicle 7 days)): 376 ± 72.8 ng/mL
- AUC(0-inf) ([3]; Group N, non-pretreated rats): 3070 ± 743 ng·h/mL
- CL/F ([3]; Group N, non-pretreated rats): 11.3 mL/min/kg
- Tmax ([3]; Group N, non-pretreated rats): 1.45 ± 0.5 h
- half-life ([3]; Group N, non-pretreated rats): 3.15 ± 0.23 h
- AUC(0-t) ([3]; Group N, non-pretreated rats): 3050 ± 732 ng·h/mL
- Cmax ([3]; Group T, ticagrelor-pretreated rats (10 mg/kg oral once a day, 7 days)): 433 ± 120 ng/mL
- AUC(0-inf) [3, 7]: 5100 ± 1800 ng·h/mL
- CL/F [3, 7]: 7.17 mL/min/kg
- Tmax [3, 7]: 3.22 ± 1.3 h
- half-life [3, 7]: 4.47 ± 0.89 h
- AUC(0-t) [3, 7]: 4900 ± 1590 ng·h/mL
- increase of AUC of tadalafil by co-administration with ticagrelor ([3]; rats, ticagrelor pretreatment): approximately 61%
- increase of Tmax, Group T compared to Group N ([3]; rats, ticagrelor pretreatment): 2.22 fold
- reduction of tadalafil clearance, Group T compared with Group N ([3]; rats, ticagrelor pretreatment): 37%
- increase of Cmax, Group T compared to Group N ([3]; rats, ticagrelor pretreatment, no significant difference (p = 0.3332)): 1.15 fold
- increase of AUC0–24 (systemic exposure), Group T compared to Group N [3, 8]: 1.61 fold
- increase of AUC0–∞, Group T compared to Group N [3, 8]: 1.66 fold
- AUC0–24 Ratio (Group T/Group N) [3, 9]: 1.61
- AUC0–∞ Ratio (Group T/Group N) [3, 9]: 1.66
- CL/F Ratio (Group T/Group N) [3, 9]: 0.63
- Cmax Ratio (Group T/Group N) [3, 9]: 1.15
- T1/2 Ratio (Group T/Group N) [3, 9]: 1.42
- Tmax Ratio (Group T/Group N) [3, 9]: 2.22
- clinical efficacy (duration) [4]: up to 36 h

SMILES: CCCSc1nc(N[C@@H]2C[C@H]2c2ccc(F)c(F)c2)c2nnn([C@@H]3C[C@H](OCCO)[C@@H](O)[C@H]3O)c2n1 [ticagrelor, Ticagrelor]
- CYP3A inhibitor classification (CYP3A): weak CYP3A inhibitor
